Test system: corn seedlings
Experiment: Zinc uptake measurements in corn seedlings (foliar spray, ICP-MS)
Format: in vivo
Settings: corn seedling aerial tissue 48 hours after spray; normalized to water control (set as 1); average of two trials; ZnSO4 1 lb Zn/acre, Zn-LAS/MSO and Zn-EDTA 0.15 lb Zn/acre, Ca-LAS/MSO 1.07 g/L
Experimental: In this example, the Zn salt of linear alkylbenzene sulfonate from example 1 was sprayed on corn seedlings that were grown in potting soil and zinc uptake into the plant leaves was measured and compared to uptake of other forms of zinc as described below. The samples that were analyzed were prepared by spraying the leaves with the particular formulation, drying the leaves after spraying, grinding the leaves, digesting them in aqua regia and measuring the concentration of zinc in solution by inductively coupled plasma mass spectrometry (ICP-MS). Spray treatment formulations were prepared as follows, based on an average delivery of 3.3 mL solution per 4 inch square pot (16 in^2 treated area): • a) deionized water only • b) Ca-LAS/MSO: 1.07 g/L in deionized water • c) ZnSO4: 1.02 g/L ZnSO4 in deionized water to approximate the recommended use rate of 1 lb Zn in 20 gallons solution per acre • d) Zn-LAS/MSO (5% w/w Zn, density 1.02 g/mL): 1.07 g/L in deionized water to approximate a use rate of 0.15 lb Zn in 20 gallons solution per acre • e) Zn-EDTA (9% w/w Zn, density 1.31 g/mL): 0.59 g/L in deionized water to approximate the recommended use rate of 0.15 lb Zn in 20 gallons solution per acre.
After 48 hours of incubation, each seedling was cut just above the soil line and the aerial tissue was used for analysis. […]

SMILES: O=S(=O)([O-])[O-].[Zn+2] [ZnSO4]
- Relative Zinc Concentration: 2.01
